Numbered stars: 1 amine (or outer) side, 2 acyl side, 3 side chain; on linkers, the order of the positions; unused ones are H or OH. Square brackets hold non-standard residues; d marks the D form. Peptide text beside a SMILES is read from it. X2 = O=C([C@H](Cc1c(F)cc(F)c(F)c1F)N[*:1])[*:2]; X3 = O=C([C@H](Cc1cc(F)c(F)c(F)c1F)N[*:1])[*:2]; Cha = N[C@@H](CC1CCCCC1)C(=O)O
assay: Activation of PAR-1 in human platelet-rich plasma assessed as induction of platelet aggregation by turbidimetric method

EC50	Compound
99 µM	CC(C)C[C@H](NC(=O)[C@H](CC(C)C)NC(=O)[C@H](CC1CCCCC1)NC(=O)[C@@H](N)CO)C(=O)N[C@@H](CCCNC(=N)N)C(=O)N[C@@H](CC(N)=O)C(=O)N1CCC[C@H]1C(N)=O (H-S[Cha]LLRNP-NH2)
8.9 µM	CC(C)C[C@H](NC(=O)[C@H](CC(C)C)NC(=O)[C@H](Cc1c(F)cc(F)c(F)c1F)NC(=O)[C@@H](N)CO)C(=O)N[C@@H](CCCNC(=N)N)C(=O)N[C@@H](CC(N)=O)C(=O)N1CCC[C@H]1C(N)=O (H-S[X2]LLRNP-NH2)
50 µM	CC(C)C[C@H](NC(=O)[C@H](CC(C)C)NC(=O)[C@H](Cc1cc(F)c(F)c(F)c1F)NC(=O)[C@@H](N)CO)C(=O)N[C@@H](CCCNC(=N)N)C(=O)N[C@@H](CC(N)=O)C(=O)N1CCC[C@H]1C(N)=O (H-S[X3]LLRNP-NH2)
3 µM	H-SFLLRNP-NH2 [1-{(S)-2-[(S)-2-((S)-2-{(S)-2-[(S)-2-((S)-2-Amino-3-hydroxy-propionylamino)-3-phenyl-propionylamino]-4-methyl-pentanoylamino}-4-methyl-pentanoylamino)-5-guanidino-pentanoylamino]-3-carbamoyl-propionyl}-pyrrolidine-2-carboxylic acid amide]
